Experimental data taken from patent US8962598B2, “1,2-dihydro-4-hydroxy-2-oxo-quinoline-3-carboxanilides as AHR activators” (Immunahr AB, priority 2010, dated 2015).
Values after ≈ are worked out from the molar mass of the structure shown.

Tests used:
[1] = Solubility measurements in 0.2 M phosphate buffer pH 7.4; assay type: physicochemical; conditions: 0.2 M phosphate buffer pH 7.4, ambient temperature, results from two dilutions; for Solubility: 24 h; for solubility at 24 h: phosphate buffer, pH 7.4, aqueous buffer, thermodynamic from solid
Procedure: Solubilities of a di- and a mono-acylated compound were measured in 0.2 M phosphate buffer pH 7.4 and compared with the solubility of the corresponding non-acylated compound.
Saturated compound solutions were prepared by mixing the compounds and the buffer solution at ambient temperature for 24 h followed by separation of the aqueous solution by centrifugation. Standard solutions of compounds (1.00 mg/mL) were prepared in DMSO.
The compound concentrations were measured by HPLC-MS/UV (Waters Alliance 2790 Separations Module/996 PDA detector/Micromass Quattro Micro) after appropriate dilutions of the aqueous saturated solutions ( 1/10 and 1/100) and the standard solutions ( 1/100, 1/200, and 1/1000), respectively, with mobile phase solvent.

[2] = system: EAE in female Dark Agouti (DA) rats; test: Experimental autoimmune encephalomyelitis (EAE) MS model in rats; assay type: in vivo, rat; conditions: FIG. 1
Procedure: EAE was induced day 0 in female Dark Agouti (DA) rats with subcutaneous injection of spinal cord homogenate (SCH, approximately 2 mg, from naive rats) emulsified in incomplete Freunds adjuvant (IFA, total volume 100 ul per rat) at the base of the tail. Disease was evaluated daily from day 5 until the end of the experiment (day 22) according to following criteria: 0=healthy, 1=tail weakness, 2=tail paralysis, 3=tail paralysis and mild waddle, 4=tail paralysis and severe waddle, 5=tail paralysis and paralysis of one limb, 6=tail paralysis and paralysis of both hind limbs, 7=tetraparesis or paralysis of three limbs, and 8=premorbid or dead. Statistical analysis was performed using Prism 5 for Mac OS X (GraphPad Software, San Diego, Calif., USA).
Treatment was initiated day 0 after EAE induction with following treatment injections administered day 3, 6, and 9. The dose was administered as a 500 uL corn oil solution subcutaneously at the lower back. Treatment groups were mixed in all cages to avoid cage effects.
Control (vehicle, corn oil, Sigma Aldrich), 11 animals
Cyclosporin A (positive control, Sigma Aldrich), 10 mg/kg, first dissolved in 70% EtOH to 50 mg/mL, 11 animals
Compound 9 (N-acetyl-N-phenyl-4-acetoxy-5-chloro-1,2-dihydro-1-methyl-2-oxo-quinoline-3-carboxamide, Example 74), 1 mg/kg, 10 animals

human AhR = biological target: T1, human AhR (Homo sapiens, UniProt P35869); test: Activation of human AhR, GeneBLAzer CYP1A1-bla LS-180 beta-lactamase reporter-gene assay; assay type: cell-based; conditions: assay reference compound (control activator)
T1 construct: host or cells: GeneBLAzer CYP1A1-bla LS-180 cell line
T1 sequence (P35869 11-848): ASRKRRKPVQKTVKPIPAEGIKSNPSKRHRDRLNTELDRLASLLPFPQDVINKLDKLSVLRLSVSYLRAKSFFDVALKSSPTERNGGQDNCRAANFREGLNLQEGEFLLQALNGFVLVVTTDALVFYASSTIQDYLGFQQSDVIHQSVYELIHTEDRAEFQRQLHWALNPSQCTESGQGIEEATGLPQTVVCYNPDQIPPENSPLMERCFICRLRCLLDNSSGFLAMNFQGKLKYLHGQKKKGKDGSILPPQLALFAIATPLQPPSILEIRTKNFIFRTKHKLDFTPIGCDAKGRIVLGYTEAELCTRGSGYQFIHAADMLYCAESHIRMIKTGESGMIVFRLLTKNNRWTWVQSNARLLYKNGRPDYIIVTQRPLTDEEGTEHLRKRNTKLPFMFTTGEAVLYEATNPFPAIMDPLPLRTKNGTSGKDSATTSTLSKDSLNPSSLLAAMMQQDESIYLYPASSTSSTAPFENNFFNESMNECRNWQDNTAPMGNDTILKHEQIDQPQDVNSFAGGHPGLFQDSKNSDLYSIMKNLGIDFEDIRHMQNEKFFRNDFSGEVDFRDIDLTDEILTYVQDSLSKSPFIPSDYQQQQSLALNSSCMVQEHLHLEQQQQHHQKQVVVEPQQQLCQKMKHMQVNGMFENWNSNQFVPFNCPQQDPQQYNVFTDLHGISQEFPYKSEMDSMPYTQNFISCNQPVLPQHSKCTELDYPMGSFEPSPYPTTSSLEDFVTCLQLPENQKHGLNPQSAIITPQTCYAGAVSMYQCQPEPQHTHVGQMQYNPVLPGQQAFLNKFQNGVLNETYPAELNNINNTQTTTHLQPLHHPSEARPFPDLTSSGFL
Procedure: Activation of the aryl hydrocarbon receptor can be measured in cell-based reporter-gene assays, which consist of cell lines containing the aryl hydrocarbon recptor and transfected with a reporter gene regulated by activated Ahr via an XRE (xenobiotic response element). AhR activation will thus result in an enhanced expression of the reporter protein (e.g. luciferase) which functional activity can be measured.
Activation of human AhR was measured in the GeneBLAzer® CYP1A1-bla LS-180 cell line (Invitrogen Corporation, Madison, www.invitrogen.com/drugdiscovery) using a beta-lactamase reporter gene (bla) combined with a FRET-enabled substrate sensitive to bla expression.
CYP1A1-bla LS-180 cells are harvested and suspended in Assay Media (OPTI-MEM, 0.5% dialyzed FBS, 0.1 mM NEAA, 1 mM Sodium Pyruvate, 100 U/mL/100 μg/mL Pen/Strep) to a concentration of 625,000 cells/mL. 32 μL of cell suspension (20,000 cells) is added to each well of a 384-well Poly-D-Lysine assay plate. Cells in assay media are incubated for 16-24 hours in the plate at 37° C./5% CO2 in a humidified incubator. 4 μL of a 10× serial dilution of beta-naphthoflavone (control activator starting concentration, 100,000 nM) or compounds are added to appropriate wells. 4 μL of Assay Media is added to all wells to bring the final assay volume to 40 μL. […] The plate is read on a fluorescence plate reader. […]

CC(=O)Oc1c(C(=O)N(C(C)=O)c2ccccc2)c(=O)n(C)c2ccccc12 [Compound 1, N-acetyl-N-phenyl-4-acetoxy-1,2-dihydro-1-methyl-2-oxo-quinoline-3-carboxamide]
Solubility [1]: 0.038 mg/mL (≈ 100 µM) | solubility at 24 h [1]: 0.021 mg/mL (≈ 55.5 µM)

CC(=O)Oc1c(C(=O)Nc2ccccc2)c(=O)n(C)c2ccccc12 [Compound 2, N-phenyl-4-acetoxy-1,2-dihydro-1-methyl-2-oxo-quinoline-3-carboxamide]
Solubility [1]: 0.221 mg/mL (≈ 657 µM) | solubility at 24 h [1]: 0.186 mg/mL (≈ 553 µM)

Cn1c(=O)c(C(=O)Nc2ccccc2)c(O)c2ccccc21 [Compound 3, N-phenyl-1,2-dihydro-4-hydroxy-1-methyl-2-oxo-quinoline-3-carboxamide, reference compound]
solubility at 24 h [1]: < 0.001 mg/mL

CC(=O)Oc1c(C(=O)N(C(C)=O)c2ccccc2)c(=O)n(C)c2cccc(Cl)c12 [Compound 9, N-acetyl-N-phenyl-4-acetoxy-5-chloro-1,2-dihydro-1-methyl-2-oxo-quinoline-3-carboxamide]
severity of the first disease period after discontinuation of treatment ([2]; 1 mg/kg s.c. day 0, 3, 6 and 9, versus vehicle control): lower than for vehicle control treated animals | EAE development (clinical score) ([2]; 1 mg/kg s.c. in corn oil day 0, 3, 6 and 9, DA rats): efficiently prevented EAE development

O=c1cc(-c2ccccc2)oc2ccc3ccccc3c12 [beta-naphthoflavone]
EC50 (human AhR): 2.09 µM
